Assays:
Type in all cases: binding
[1] = molecular target: T1, Ddn (deazaflavin-dependent nitroreductase, Rv3547) (Mycobacterium tuberculosis, UniProt P9WP15); assay: cocrystal structures (Holo-1 […] Å, Holo-2 […] Å); Trp fluorescence quenching Kd; HSQC NMR; parameters: […]; full-length Ddn / MBP-Ddn fusion (Kd)
nfa18080 = molecular target: T2, nfa18080 (Nocardia farcinica, UniProt Q5YYT7); assay: crystal structure, […] Å
T2 construct: gene NFA_18080; full-length (density starts at residue 5)
T2 sequence (Q5YYT7 1-144): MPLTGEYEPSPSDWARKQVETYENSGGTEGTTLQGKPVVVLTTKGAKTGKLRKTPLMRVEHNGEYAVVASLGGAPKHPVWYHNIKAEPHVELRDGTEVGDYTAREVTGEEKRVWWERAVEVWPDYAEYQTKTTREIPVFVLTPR

nfa33440 = molecular target: T3, nfa33440 (Nocardia farcinica, UniProt Q5YUF0); assay: cocrystal structure, […] Å; HSQC NMR
T3 construct: gene NFA_33440; full-length (density starting at residue 6)
T3 sequence (Q5YUF0 1-147): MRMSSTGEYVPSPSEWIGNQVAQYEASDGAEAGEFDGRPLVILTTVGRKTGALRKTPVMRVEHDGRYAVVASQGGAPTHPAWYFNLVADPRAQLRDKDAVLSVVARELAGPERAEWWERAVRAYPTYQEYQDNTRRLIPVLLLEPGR

[2] = molecular target: T1, Ddn (deazaflavin-dependent nitroreductase, Rv3547); assay: intrinsic tryptophan fluorescence quenching; also steady-state kinetics (KM […]); parameters: full-length Ddn / MBP-Ddn fusion

T1 sequence (P9WP15 whole entry, the tested form may be a part): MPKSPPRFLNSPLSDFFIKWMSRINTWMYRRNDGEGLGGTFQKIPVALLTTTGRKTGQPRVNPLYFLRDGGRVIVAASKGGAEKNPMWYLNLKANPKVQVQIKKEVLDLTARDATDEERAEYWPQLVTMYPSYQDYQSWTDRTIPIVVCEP

Row | SMILES | Kd [1] | crystal structure, 1.50 Å (nfa18080) | cocrystal structure, 1.80 Å; HSQC NMR (nfa33440) | Kd [2]
1 | C[C@H](OP(=O)(O)OC[C@@H](O)[C@@H](O)[C@@H](O)Cn1c2nc(=O)[nH]c(=O)c-2cc2ccc(O)cc21)C(=O)N[C@@H](CCC(=O)N[C@@H](CCC(=O)O)C(=O)O)C(=O)O [F420] | 1 µM | nfa18080 from N. farcinica, was solved by X-ray crystallography in the presence of F420 | a cocrystal of nfa33440 with F420 confirmed that the overall structure and coenzyme binding are very similar | 
2 | O=[N+]([O-])c1cn2c(n1)OC[C@@H](OCc1ccc(OC(F)(F)F)cc1)C2 [PA-824, (6S)-2-nitro-6-[4-(trifluoromethoxy)benzyl]oxy-6,7-dihydro-5H-imidazo[2,1-b][1,3]oxazine] |  |  |  | 31 µM
